In ChEMBL document CHEMBL5150002, “Molecular Glues for Targeted Protein Degradation: From Serendipity to Rational Discovery” (J Med Chem, 2021):
pEC50: −log10 of the molar value.

Legend:
[1] = biological target: T1, DNA damage-binding protein 1/Cyclin-dependent kinase 12/Cyclin-K (Homo sapiens, UniProt O75909+Q16531+Q9NYV4); assay: Molecular glue activity at human CDK12/CCNK (11 to 267 residues)/human DDB1-CUL4-RBX1 expressed in baculovirus expression system in human 293 TA cells assessed as CCNK protein degradation
[2] = biological target: T1, DNA damage-binding protein 1/Cyclin-dependent kinase 12/Cyclin-K; assay: Molecular glue activity at human CDK12 (715 to 1052 residues)/Cyclin K/human DDB1-[…]-RBX1 expressed in baculovirus expression system assessed as Cyclin K protein degradation

T1 sequence (O75909 whole entry, the tested form may be a part): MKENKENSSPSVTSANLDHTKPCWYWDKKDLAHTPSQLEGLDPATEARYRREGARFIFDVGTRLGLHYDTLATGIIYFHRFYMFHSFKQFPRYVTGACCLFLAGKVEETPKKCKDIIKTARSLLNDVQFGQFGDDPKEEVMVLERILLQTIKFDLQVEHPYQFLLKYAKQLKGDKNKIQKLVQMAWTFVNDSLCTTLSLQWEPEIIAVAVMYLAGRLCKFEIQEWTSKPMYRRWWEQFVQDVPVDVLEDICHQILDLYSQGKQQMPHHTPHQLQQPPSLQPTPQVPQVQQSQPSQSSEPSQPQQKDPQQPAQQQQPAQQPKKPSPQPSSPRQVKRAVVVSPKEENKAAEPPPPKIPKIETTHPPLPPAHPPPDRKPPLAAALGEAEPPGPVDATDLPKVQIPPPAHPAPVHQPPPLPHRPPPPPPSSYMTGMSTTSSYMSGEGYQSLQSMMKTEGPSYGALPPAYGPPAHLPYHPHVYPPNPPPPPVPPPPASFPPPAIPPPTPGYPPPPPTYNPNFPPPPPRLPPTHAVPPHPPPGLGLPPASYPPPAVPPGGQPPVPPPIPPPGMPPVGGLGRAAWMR
T1 sequence (Q9NYV4 whole entry, the tested form may be a part): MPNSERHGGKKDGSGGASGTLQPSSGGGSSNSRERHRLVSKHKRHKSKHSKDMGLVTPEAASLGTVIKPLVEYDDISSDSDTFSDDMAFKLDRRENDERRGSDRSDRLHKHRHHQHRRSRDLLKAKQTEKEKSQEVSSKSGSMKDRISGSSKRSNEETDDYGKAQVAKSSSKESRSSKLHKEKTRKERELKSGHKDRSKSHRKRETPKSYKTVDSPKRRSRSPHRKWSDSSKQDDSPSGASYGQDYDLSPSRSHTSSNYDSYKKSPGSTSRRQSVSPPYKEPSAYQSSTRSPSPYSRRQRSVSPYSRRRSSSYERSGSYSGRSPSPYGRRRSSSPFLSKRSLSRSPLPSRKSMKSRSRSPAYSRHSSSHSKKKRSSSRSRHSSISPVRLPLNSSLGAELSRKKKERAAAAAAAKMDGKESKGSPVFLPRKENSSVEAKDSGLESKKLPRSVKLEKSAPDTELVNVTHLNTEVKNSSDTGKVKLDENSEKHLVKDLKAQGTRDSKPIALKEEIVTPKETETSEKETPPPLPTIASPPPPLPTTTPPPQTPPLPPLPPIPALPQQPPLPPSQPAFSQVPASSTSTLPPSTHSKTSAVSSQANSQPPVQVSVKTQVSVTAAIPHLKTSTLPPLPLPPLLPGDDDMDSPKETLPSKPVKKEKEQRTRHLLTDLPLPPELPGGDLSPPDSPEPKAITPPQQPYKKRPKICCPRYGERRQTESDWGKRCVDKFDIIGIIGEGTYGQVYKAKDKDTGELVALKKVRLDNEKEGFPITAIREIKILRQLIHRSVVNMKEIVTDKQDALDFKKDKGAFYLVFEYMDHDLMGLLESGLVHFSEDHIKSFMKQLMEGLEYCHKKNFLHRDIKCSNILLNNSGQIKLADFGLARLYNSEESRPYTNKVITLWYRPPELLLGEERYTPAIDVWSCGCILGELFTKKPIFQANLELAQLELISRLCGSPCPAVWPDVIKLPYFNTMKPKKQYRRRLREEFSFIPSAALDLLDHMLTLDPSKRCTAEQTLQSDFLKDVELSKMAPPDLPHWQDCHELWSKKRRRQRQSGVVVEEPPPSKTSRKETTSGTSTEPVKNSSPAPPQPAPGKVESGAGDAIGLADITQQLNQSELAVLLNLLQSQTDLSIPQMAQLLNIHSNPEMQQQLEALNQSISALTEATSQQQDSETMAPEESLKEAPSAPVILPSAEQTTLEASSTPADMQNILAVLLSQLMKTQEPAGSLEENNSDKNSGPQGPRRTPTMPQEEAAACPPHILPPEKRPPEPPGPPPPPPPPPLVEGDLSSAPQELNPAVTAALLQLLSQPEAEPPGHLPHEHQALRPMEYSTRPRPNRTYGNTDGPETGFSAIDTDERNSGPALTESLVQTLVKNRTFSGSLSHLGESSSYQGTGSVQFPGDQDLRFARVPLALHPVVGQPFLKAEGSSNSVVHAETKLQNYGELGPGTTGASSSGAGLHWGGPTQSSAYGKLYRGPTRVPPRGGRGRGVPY
T1 sequence (Q16531 whole entry, the tested form may be a part): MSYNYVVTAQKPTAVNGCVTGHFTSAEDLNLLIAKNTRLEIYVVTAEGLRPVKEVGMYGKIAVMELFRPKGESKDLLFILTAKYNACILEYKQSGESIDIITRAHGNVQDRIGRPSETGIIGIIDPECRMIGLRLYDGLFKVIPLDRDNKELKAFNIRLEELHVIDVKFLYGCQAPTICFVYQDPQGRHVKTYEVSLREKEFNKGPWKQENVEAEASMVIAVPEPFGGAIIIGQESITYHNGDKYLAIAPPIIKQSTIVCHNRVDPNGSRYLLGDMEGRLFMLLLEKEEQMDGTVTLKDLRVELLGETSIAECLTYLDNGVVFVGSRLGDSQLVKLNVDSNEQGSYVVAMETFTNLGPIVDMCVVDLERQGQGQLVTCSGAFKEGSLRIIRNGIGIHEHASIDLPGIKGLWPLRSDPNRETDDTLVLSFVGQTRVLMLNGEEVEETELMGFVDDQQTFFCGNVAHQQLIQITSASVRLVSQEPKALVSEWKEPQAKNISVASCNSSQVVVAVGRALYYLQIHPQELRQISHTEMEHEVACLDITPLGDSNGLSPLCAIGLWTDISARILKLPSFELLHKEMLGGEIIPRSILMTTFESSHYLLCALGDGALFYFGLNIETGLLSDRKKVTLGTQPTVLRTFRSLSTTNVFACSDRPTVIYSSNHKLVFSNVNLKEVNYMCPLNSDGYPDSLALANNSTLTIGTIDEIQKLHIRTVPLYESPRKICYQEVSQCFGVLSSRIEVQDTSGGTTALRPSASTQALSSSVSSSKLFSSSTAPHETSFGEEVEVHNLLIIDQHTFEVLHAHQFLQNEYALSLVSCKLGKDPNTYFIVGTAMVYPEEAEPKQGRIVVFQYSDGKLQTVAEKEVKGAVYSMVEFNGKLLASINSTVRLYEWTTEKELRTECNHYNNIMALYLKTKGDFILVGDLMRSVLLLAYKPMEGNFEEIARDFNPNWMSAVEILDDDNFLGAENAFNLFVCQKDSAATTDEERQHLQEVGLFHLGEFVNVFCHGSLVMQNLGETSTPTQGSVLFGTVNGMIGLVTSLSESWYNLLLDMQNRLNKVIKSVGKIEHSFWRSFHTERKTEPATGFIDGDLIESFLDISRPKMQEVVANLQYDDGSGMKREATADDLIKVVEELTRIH

SMILES | pEC50 [1] | pEC50 [2]
Cc1cnc(NC(=O)Cc2csc(Nc3cccc(CO)n3)n2)s1 | 7.39 | 
Cc1cccc(Nc2nc(CC(=O)Nc3ncc(C)s3)cs2)n1 | 6.88 | 6.34
